Values of other authors, collected in patent publication US20090117199A1, “Method of treatment of cancer” (priority 1998, published 2009).
Where two headings read alike, the source gives them in different places.

Assays:
melanoma [1] = conditions: cited from earlier work
melanoma [2] = conditions: single-agent chemotherapy; cited from earlier work
[3] = IL cisplatin or IL cisplatin with electroporation, lower end of reported results
[4] = IL cisplatin or IL cisplatin with electroporation, upper end of reported results

Molecule: N.N.[Cl][Pt][Cl] [cisplatin]
- CR (melanoma [1]; [3]): 19%
- ORR (melanoma [1]; [3]): 38%
- PR (melanoma [1]; [3]): 19%
- CR (melanoma [1]; [4]): 47%
- ORR (melanoma [1]; [4]): 53%
- PR (melanoma [1]; [4]): 7%
- ORR (melanoma [1]; lesions having a median diameter of 3.0 cm): 44%
- ORR (melanoma [1]; lesions with a median diameter of 0.6 cm): 53%

Molecule: bleomycin
- efficacy (melanoma [1]; single electrochemotherapy treatment, IL, response reduced in larger tumors): Substantial efficacy

Molecule: CN(C)/N=N/c1[nH]cnc1C(N)=O [dacarbazine]
- cases in which treatment is successful (melanoma [2]): 10-15%

B1: IFNγ: IL interferon (protein, UniProt P01579 24-161, looked up)
Interferon gamma: QDPYVKEAENLKKYFNAGHSDVADNGTLFLGILKNWKEESDRKIMQSQIVSFYFKLFKNFKDDQSIQKSVETIKEDMNVKFFNSNKKKRDDFEKLTNYSVTDLNVQRKAIHELIQVMAELSPAAKTGKRKRSQMLFRG
- response (melanoma [1]; IL therapy, prior reports): no result of transient response
- toxicity and side effects (melanoma [1]; in vivo): significant toxicity and side effects
